Assay results taken from ChEMBL document CHEMBL4261534, “Synthesis, α-glucosidase inhibition and molecular docking studies of novel thiazolidine-2,4-dione or rhodanine derivatives” (Medchemcomm, 2017).

Biological target: alpha-glucosidase (Saccharomyces cerevisiae)
Assay: Inhibition of alpha-glucosidase (unknown origin) using p-nitrophenyl alpha-D-glucopyranoside as substrate preincubated for 15 mins followed by substrate addition measured after 30 mins by spectrophotometric method

SMILES	IC50 [µM]
CCOc1cc(/C=C2\SC(=S)NC2=O)ccc1OCN1C(=O)c2ccccc2C1=O	7.72
COc1cccc(/C=C2\SC(=O)NC2=O)c1OCN1C(=O)c2ccccc2C1=O	> 100
CCOc1cc(/C=C2\SC(=O)NC2=O)ccc1OCN1C(=O)c2ccccc2C1=O	29.26
O=C1NC(=O)/C(=C/c2ccc(OCN3C(=O)c4ccccc4C3=O)c([N+](=O)[O-])c2)S1	22.48
COc1cc(/C=C2\SC(=S)NC2=O)cc(OC)c1OCN1C(=O)c2ccccc2C1=O	39.81
COc1cc(/C=C2\SC(=O)NC2=O)ccc1OCN1C(=O)c2ccccc2C1=O	35.14
O=C1NC(=S)S/C1=C\c1ccc(OCN2C(=O)c3ccccc3C2=O)c([N+](=O)[O-])c1	6.59
O=C1NC(=O)/C(=C/c2ccc(OCN3C(=O)c4ccccc4C3=O)cc2)S1	25.6
O=C1NC(=S)S/C1=C\c1ccc(OCN2C(=O)c3ccccc3C2=O)c(Cl)c1	5.44
O=C1NC(=O)/C(=C/c2cccc(OCN3C(=O)c4ccccc4C3=O)c2)S1	> 100
O=C1NC(=S)S/C1=C\c1cc(Cl)ccc1OCN1C(=O)c2ccccc2C1=O	34.82
COc1cc(/C=C2\SC(=S)NC2=O)ccc1OCN1C(=O)c2ccccc2C1=O	16.11
O=C1NC(=S)S/C1=C\c1ccccc1OCN1C(=O)c2ccccc2C1=O	> 100
O=C1NC(=O)/C(=C/c2ccccc2OCN2C(=O)c3ccccc3C2=O)S1	> 100
O=C1NC(=O)/C(=C/c2ccc(OCN3C(=O)c4ccccc4C3=O)c(Cl)c2)S1	20.95
O=C1NC(=O)/C(=C/c2cc(Cl)ccc2OCN2C(=O)c3ccccc3C2=O)S1	> 100
O=C1NC(=S)S/C1=C\c1cccc(OCN2C(=O)c3ccccc3C2=O)c1	33.98
O=C1NC(=S)S/C1=C\c1ccc(OCN2C(=O)c3ccccc3C2=O)cc1	7.91
O=C1NC(=O)/C(=C/c2cc([N+](=O)[O-])ccc2OCN2C(=O)c3ccccc3C2=O)S1	50.45
COc1cccc(/C=C2\SC(=S)NC2=O)c1OCN1C(=O)c2ccccc2C1=O	> 100
O=C1NC(=S)S/C1=C\c1cc([N+](=O)[O-])ccc1OCN1C(=O)c2ccccc2C1=O	35.79
COc1cc(/C=C2\SC(=O)NC2=O)cc(OC)c1OCN1C(=O)c2ccccc2C1=O	> 100
